Assay results reported in patent US20090087871A1, “Method for Identifying PDE5-Modulators” (Atlanta Pharma AG, priority 2004, published 2009).
“Also recorded” adds a separate entry of the source.

Assays:
PDE5/CyaB1-chimera = test: adenylate cyclase activity of PDE5/CyaB1-chimera (conversion of [α-32P]-ATP to cAMP); format: biochemical, human; conditions: in the presence of cGMP; FIG. 6
Procedure: The adenylate cyclase activity of the PDE5/CyaB1-chimera is measured with and without the test substance. […] The incubation time should be between 1 and 120 min, the incubation temperature between 20 and 45° C., the Mg^2+-cofactor concentration between 1 and 20 mM (corresponding amounts of Mn^2+ may also be used as a cofactor) and the ATP concentration between 0.5 μM and 5 mM. An increase in the conversion with the substance compared to without the substance indicates a GAF-agonistic effect. If conversion is inhibited by adding the substance, this indicates a GAF-antagonistic effect of the substance. A GAF antagonism can also be measured via blockage of activation of PDE5/CyaB1-chimera by the native GAF ligand cGMP. In addition, the conversion at rising or fixed cGMP concentration is measured with and without the substance. If the conversion rates with the substance are below those without the substance, this indicates GAF antagonism of the substance. […]
The protein samples and the cocktail are measured in 1.5 mL reaction containers on ice, the reaction with ATP is started, and incubation is carried for 10 minutes at 37° C.
Each test mixture is carried in duplicate. […] With a test mixture without substance and cGMP, the basal enzyme activity is determined. […]
The inhibition or activation of the enzyme by the substance is calculated as % basal value according to the following formula: […]

PDE5 = PDE5 (Homo sapiens, UniProt O76074); conditions: cited from earlier work

Row | SMILES | PDE5-antagonistic effect via binding to the GAF domain of PDE5 (PDE5/CyaB1-chimera) | increase of the activity of PDE5 via cGMP binding to the GAF tandem (PDE5)
1 | CCCc1nn(C)c2c(=O)[nH]c(-c3cc(S(=O)(=O)N4CCN(C)CC4)ccc3OCC)nc12 [Sildenafil] | None of the measured PDE5 inhibitors shows a PDE5-antagonistic effect; also recorded: None of the measured PDE5 inhibitors showed a PDE5-antagonistic action | –
2 | Nc1nc2c(ncn2[C@@H]2O[C@@H]3COP(=O)(O)O[C@H]3[C@H]2O)c(=O)[nH]1 [cGMP] | – | tenfold
